Test results as given in publication PMC5196488 (International Journal for Parasitology: Drugs and Drug …, 2016).

What was measured:
[1] = biological target: T1, S7.1R (Dj-S7.1R) (Dugesia japonica, UniProt O15969); experiment: GloSensor cAMP luminescence in transfected HEK293 cells, peak amplitude; assay type: cell-based
T1 sequence (O15969 1-478): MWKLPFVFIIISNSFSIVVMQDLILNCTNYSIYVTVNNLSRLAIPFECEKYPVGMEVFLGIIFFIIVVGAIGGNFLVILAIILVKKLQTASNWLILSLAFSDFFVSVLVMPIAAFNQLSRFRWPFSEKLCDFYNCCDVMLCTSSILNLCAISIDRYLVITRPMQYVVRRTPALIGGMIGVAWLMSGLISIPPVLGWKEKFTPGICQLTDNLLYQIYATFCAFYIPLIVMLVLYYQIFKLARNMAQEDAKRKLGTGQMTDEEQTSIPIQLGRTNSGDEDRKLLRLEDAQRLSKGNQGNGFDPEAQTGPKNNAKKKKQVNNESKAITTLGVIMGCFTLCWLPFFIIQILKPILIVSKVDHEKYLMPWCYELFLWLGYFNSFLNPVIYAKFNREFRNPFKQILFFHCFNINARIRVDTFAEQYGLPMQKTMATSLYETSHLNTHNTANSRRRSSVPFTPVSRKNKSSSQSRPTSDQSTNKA

[2] = biological target: T1, S7.1R (Dj-S7.1R); assay type: cell-based

IC50 [2]	Structure (SMILES)	EC50 [1]
	NCCc1c[nH]c2ccc(O)cc12 [5-HT]	82 ± 5 nM
1800 ± 500 nM	CC(C)C[C@H]1C(=O)N2CCC[C@H]2[C@]2(O)O[C@](NC(=O)[C@@H]3C=C4c5cccc6[nH]c(Br)c(c56)C[C@H]4N(C)C3)(C(C)C)C(=O)N12 [bromocriptine]	
